# Measured values published in US10294202B2, “Pyrrolidinones as herbicides” (FMC Corporation, priority 2013, dated 2019).
# Legend:
# sprangletop, Brdd. = test: Test F flood (paddy) test; format: in vivo, Leptochloa fascicularis; conditions: 21 d, scale 0-100
# Description: Three plastic pots (ca. 16-cm diameter) per rate were partially filled with sterilized Tama silt loam soil comprising a 35:50:15 ratio of sand, silt and clay and 2.6% organic matter. Separate plantings for each of the three pots were as follows. Seeds from the U.S. of monochoria (Monochoria vaginalis), sedge, umbrella (small-flower umbrella sedge, Cyperus difformis), bulrush, […] bulrush, Scirpus juncoides), and […] (purple […] coccinea), were planted into one 16-cm pot for each rate. Seeds from the U.S. of flatsedge, rice (rice flatsedge, Cyperus iria), sprangletop, Brdd. (bearded sprangletop, Leptochloa fascicularis), one stand of 9 or 10 water seeded rice seedlings (Rice, W.S. Jap, Oryza sativa cv. 'Japonica-[…]' or Rice, W.S. Ind, 'Indica'), and two stands of 3 or 4 seedlings of rice, transplanted (transplanted rice, Oryza sativa cv. 'Japonica-[…]') were planted into one 16-cm pot for each rate. Seeds from the U.S. of barnyardgrass (Echinochloa crus-galli), […] (common […], Alisma plantago-aquatica), and watergrass, late (late watergrass, Echinochloa oryzicola) were planted into one 16-cm pot for each rate. Plantings were sequential so that crop and weed species were at the 2.0 to 2.5-leaf stage at time of treatment. Potted plants were grown in a greenhouse with day/night temperature settings of 30/27° C., and supplemental balanced lighting was provided to maintain a 16-h photoperiod. Test pots were maintained in the greenhouse until test completion. At time of treatment, test pots were flooded to 3 cm above the soil surface, treated by application of test compounds directly to the paddy water, and then maintained at that water depth for the duration of the test. Effects of treatments on rice and weeds were visually evaluated by comparison to untreated controls after 21 d. Plant response ratings, summarized in Table F, are based on a scale of 0 to 100 where 0 is no effect and 100 is complete control. A dash (-) response means no test result.
# wheat, spring = test: Test D pre-/postemergence herbicide test; format: in vivo, Triticum aestivum; conditions: for Plant response rating: Postemergence, Wheat, Spring, scale 0 to 100; for Plant response rating, Wheat, Spring: Preemergence, scale 0 to 100 (0 no effect, 100 complete control)
# Description: (§1) Seeds of plant species selected from bluegrass (annual bluegrass, Poa annua), blackgrass (Alopecurus myosuroides), canarygrass (littleseed canarygrass, Phalaris minor), chickweed (common chickweed, Stellaria media), galium (catchweed bedstraw, Galium aparine), bromegrass, downy (downy bromegrass, Bromus tectorum), field poppy (Papaver rhoeas), field violet (Viola arvensis), foxtail, green (green foxtail, Setaria viridis), deadnettle (henbit deadnettle, Lamium amplexicaule), ryegrass, Italian (Italian ryegrass, Lolium multiflorum), kochia (Kochia scoparia), lambsquarters (Chenopodium album), oilseed rape (Brassica napus), pigweed (Amaranthus retroflexus), chamomile (scentless chamomile, Matricaria inodora), Russian thistle (Salsola kali), speedwell (bird's-eye speedwell, Veronica persica), barley, spring (spring barley, Hordeum vulgare), wheat, spring (spring wheat, Triticum aestivum), buckwheat, wild (wild buckwheat, Polygonum convolvulus), mustard, wild (wild mustard, Sinapis arvensis), oat, wild (wild oat, Avena fatua), radish, wild (wild radish, Raphanus raphanistrum), […]), barley, winter (winter barley, Hordeum vulgare), and wheat, winter (winter wheat, Triticum aestivum) were planted into a silt loam soil and treated preemergence with test chemicals formulated in a non-phytotoxic solvent mixture which included a surfactant. At the same time, these species were planted in pots containing Redi-Earth® planting medium (Scotts Company, 14111 Scottslawn Road, Marysville, Ohio 43041) comprising spaghnum peat moss, vermiculite, wetting agent and starter nutrients and treated with postemergence applications of the test chemicals formulated in the same manner. Plants ranged in height from 2 to 18 cm (1- to 4-leaf stage). Treated plants and controls were maintained in a controlled growth environment for 7 to 21 days after which time all species were compared to controls and visually evaluated. Plant response ratings, summarized in Table D, are based on a scale of 0 to 100 where 0 is no effect and 100 is complete control. A dash (-) response means no test result.
# deadnettle = test: Test D pre-/postemergence herbicide test; format: in vivo, Lamium amplexicaule; conditions: for Plant response rating: Deadnettle, scale 0 to 100; for Plant response rating, Deadnettle: scale 0 to 100 (0 no effect, 100 complete control)
# Description: as §1
# goosegrass = test: Test E preemergence herbicide test; format: in vivo, Eleusine indica; parameters: key: 0 = no effect, 100 = complete control
# Description: (§2) Seeds of plant species selected from corn (Zea mays), soybean (Glycine max), velvetleaf (Abutilon theophrasti), lambsquarters (Chenopodium album), wild poinsettia (Euphorbia heterophylla), pigweed, palmer (palmer pigweed, Amaranthus palmeri), waterhemp (common waterhemp, Amaranthus rudis), surinam grass (Brachiaria decumbens), crabgrass, large (large crabgrass, Digitaria sanguinalis), crabgrass, Brazil (Brazilian crabgrass, Digitaria horizontalis), panicum, fall (fall panicum, Panicum dichotomiflorum), foxtail, giant (giant foxtail, Setaria faberii), foxtail, green (green foxtail, Setaria viridis), goosegrass (Eleusine indica), johnsongrass (Sorghum halepense), ragweed (common ragweed, Ambrosia elatior), barnyardgrass (Echinochloa crus-galli), sandbur (southern sandbur, Cenchrus echinatus), arrowleaf […] rhombifolia), ryegrass, Italian (Italian ryegrass, Lolium multiflorum), dayflower, VA (Virginia dayflower, Commelina virginica), field bindweed (Convolvulus arvensis), morningglory (Ipomoea coccinea), nightshade (eastern black nightshade, Solanum ptycanthum), kochia (Kochia scoparia), nutsedge, yellow (yellow nutsedge, Cyperus esculentus), cocklebur (common cocklebur, Xanthium strumarium), smartweed (ladysthumb smartweed, Polygonum Persicaria) and beggarticks (hairy beggarticks, Bidens pilosa), were planted into a silt loam soil and treated preemergence with test chemicals formulated in a non-phytotoxic solvent mixture which included a surfactant. Treated plants and controls were maintained in a greenhouse for 21 days, after which time all species were compared to controls and visually evaluated. Plant response ratings, summarized in Table E, are based on a scale of 0 to 100 where 0 is no effect and 100 is complete control. A dash (-) response means no test result.
# panicum, fall = test: Test E preemergence herbicide test; format: in vivo, Panicum dichotomiflorum; parameters: key: 0 = no effect, 100 = complete control
# Description: as §2
# morningglory = test: Test E preemergence herbicide test; format: in vivo, Ipomoea coccinea; parameters: key: 0 = no effect, 100 = complete control
# Description: as §2
# nutsedge, yellow = test: Test E preemergence herbicide test; format: in vivo, Cyperus esculentus; parameters: key: 0 = no effect, 100 = complete control
# Description: as §2
Structure (SMILES),"Plant response rating, Sprangletop, Brdd. (sprangletop, Brdd.; 250 g ai/ha)","Plant response rating, Sprangletop, Brdd. (sprangletop, Brdd.; 500 g ai/ha)","Plant response rating (wheat, spring; 16 g ai/ha)","Plant response rating (wheat, spring; 31 g ai/ha)","Plant response rating (wheat, spring; 62 g ai/ha)","Plant response rating (wheat, spring; 125 g ai/ha)","Plant response rating (wheat, spring; 250 g ai/ha)","Plant response rating, Wheat, Spring (wheat, spring; 31 g ai/ha)","Plant response rating, Wheat, Spring (wheat, spring; 62 g ai/ha)","Plant response rating, Wheat, Spring (wheat, spring; 125 g ai/ha)","Plant response rating, Wheat, Spring (wheat, spring; 250 g ai/ha)","Plant response rating (deadnettle; Postemergence, 16 g ai/ha)","Plant response rating (deadnettle; Postemergence, 31 g ai/ha)","Plant response rating (deadnettle; Postemergence, 62 g ai/ha)","Plant response rating (deadnettle; Postemergence, 125 g ai/ha)","Plant response rating (deadnettle; Postemergence, 250 g ai/ha)","Plant response rating, Deadnettle (deadnettle; Preemergence, 31 g ai/ha)","Plant response rating, Deadnettle (deadnettle; Preemergence, 62 g ai/ha)","Plant response rating (deadnettle; Preemergence, 250 g ai/ha)","Plant response rating, Sprangletop, Brdd. (sprangletop, Brdd.; 125 g ai/ha)",further results
O=C1NCC(c2cccc(C(F)(F)F)c2)C1C(=O)Nc1ccccc1F (racemic) [Compound 3],80,85,,,,,,,,,,,,,,,,,,,
O=C1NCC(c2ccc(F)c(F)c2)C1C(=O)Nc1cccc(F)c1 (racemic) [Compound 12],,,0,0,0,0,0,0,0,0,0,0,0,10,15,20,0,0,50,,"Plant response rating, Wheat, Spring (wheat, spring; 16 g ai/ha): 0; Plant response rating, Deadnettle (deadnettle; Preemergence, 16 g ai/ha): 0; Plant response rating (deadnettle; Preemergence, 125 g ai/ha): 0"
O=C1NCC(c2ccc(F)cc2)C1C(=O)Nc1ccccc1F (racemic) [Compound 16],,,,,,,,,,,,,,,,,,,,,"Plant response rating, Goosegrass (goosegrass; 16 g ai/ha): 0; Plant response rating, Goosegrass (goosegrass; 31 g ai/ha): 0; Plant response rating, Goosegrass (goosegrass; 62 g ai/ha): 0; Plant response rating, Goosegrass (goosegrass; 125 g ai/ha): 0; Plant response rating, Goosegrass (goosegrass; 250 g ai/ha): 0; Plant response rating, Panicum, Fall (panicum, fall; 16 g ai/ha): 0; Plant response rating, Panicum, Fall (panicum, fall; 31 g ai/ha): 0; Plant response rating, Panicum, Fall (panicum, fall; 62 g ai/ha): 0; Plant response rating, Panicum, Fall (panicum, fall; 125 g ai/ha): 0; Plant response rating, Morningglory (morningglory; 16 g ai/ha): 0; Plant response rating, Morningglory (morningglory; 31 g ai/ha): 0; Plant response rating, Morningglory (morningglory; 62 g ai/ha): 0; Plant response rating, Morningglory (morningglory; 125 g ai/ha): 0; Plant response rating, Morningglory (morningglory; 250 g ai/ha): 0; Plant response rating, Nutsedge, Yellow (nutsedge, yellow; 16 g ai/ha): 0; Plant response rating, Nutsedge, Yellow (nutsedge, yellow; 31 g ai/ha): 0; Plant response rating, Nutsedge, Yellow (nutsedge, yellow; 62 g ai/ha): 0; Plant response rating, Nutsedge, Yellow (nutsedge, yellow; 125 g ai/ha): 0; Plant response rating, Nutsedge, Yellow (nutsedge, yellow; 250 g ai/ha): 0"
O=C1NCC(c2cc(F)c(F)c(F)c2)C1C(=O)Nc1ccccc1C(F)(F)F (racemic) [Compound 33],,,0,0,0,0,0,,,,,0,0,0,0,10,,,,,
O=C1NCC(c2cc(F)c(F)c(F)c2)C1C(=O)Nc1ccccc1F (racemic) [Compound 34],,,0,0,0,0,0,,,,,0,0,0,0,0,,,,,
O=C1NCC(c2cccc(C(F)(F)F)c2)C1C(=O)Nc1ccc(F)cc1F (racemic) [Compound 207],100,100,,,,,,5,10,10,10,,,,,,0,0,20,100,"Plant response rating, Deadnettle (deadnettle; Preemergence, 125 g ai/ha): 20"
O=C1NCC(c2ccc(C(F)(F)F)c(F)c2)C1C(=O)Nc1cccc(F)c1F (racemic) [Compound 247],95,98,,,,,,,,,,,,,,,,,,90,"Plant response rating, Sprangletop, Brdd. (sprangletop, Brdd.; 1000 g ai/ha): 98; Plant response rating, Sprangletop, Brdd. (sprangletop, Brdd.; 2000 g ai/ha): 98"
O=C1NCC(c2cccc(Br)c2)C1C(=O)Nc1ccccc1F (stereo not shown) [Compound 66],,,,,,,,,,,,,,,,,,,,,"Plant response rating, Goosegrass (goosegrass; 16 g ai/ha): 0; Plant response rating, Goosegrass (goosegrass; 31 g ai/ha): 0; Plant response rating, Goosegrass (goosegrass; 62 g ai/ha): 0; Plant response rating, Goosegrass (goosegrass; 125 g ai/ha): 0; Plant response rating, Goosegrass (goosegrass; 250 g ai/ha): 0; Plant response rating, Panicum, Fall (panicum, fall; 16 g ai/ha): 0; Plant response rating, Panicum, Fall (panicum, fall; 31 g ai/ha): 0; Plant response rating, Panicum, Fall (panicum, fall; 62 g ai/ha): 0; Plant response rating, Panicum, Fall (panicum, fall; 125 g ai/ha): 0; Plant response rating, Panicum, Fall (panicum, fall; 250 g ai/ha): 0; Plant response rating, Morningglory (morningglory; 16 g ai/ha): 0; Plant response rating, Morningglory (morningglory; 31 g ai/ha): 0; Plant response rating, Morningglory (morningglory; 62 g ai/ha): 0; Plant response rating, Morningglory (morningglory; 125 g ai/ha): 0; Plant response rating, Morningglory (morningglory; 250 g ai/ha): 0; Plant response rating, Nutsedge, Yellow (nutsedge, yellow; 16 g ai/ha): 0; Plant response rating, Nutsedge, Yellow (nutsedge, yellow; 31 g ai/ha): 0; Plant response rating, Nutsedge, Yellow (nutsedge, yellow; 62 g ai/ha): 0; Plant response rating, Nutsedge, Yellow (nutsedge, yellow; 125 g ai/ha): 0; Plant response rating, Nutsedge, Yellow (nutsedge, yellow; 250 g ai/ha): 0"
O=C1NCC(c2cccc(C(F)(F)F)c2)C1C(=O)Nc1cccc(F)c1F (stereo not shown) [Compound 241],,,,,,,,0,0,25,40,,,,,,35,30,45,,"Plant response rating, Deadnettle (deadnettle; Preemergence, 125 g ai/ha): 35"
CN1CC(c2ccc(F)cc2)C(C(=O)Nc2cccc(F)c2F)C1=O (stereo not shown) [Compound 271],80,95,,,,,,,,,,,,,,,,,,30,"Plant response rating, Sprangletop, Brdd. (sprangletop, Brdd.; 64 g ai/ha): 20"
